Where two headings read alike, the source gives them in different places.
Legend:
HIF-2a = HIF-2a (Homo sapiens, UniProt Q99814); details: target HIF-2a; cited from earlier work
PHD = details: cited from earlier work
HIF-1a = HIF-1a (Homo sapiens, UniProt Q16665); details: cited from earlier work
[1] = target: T1, EPO/EPOR interaction (EPOR-CD131-Fc and EPO) (Homo sapiens, UniProt P19235+P32927); assay: Octet blocking of the EPO/EPOR interaction by hybridoma supernatants; format: binding; details: EPO 10 nM
T1 construct: Chimeric Fc fusion proteins of the extracellular domains of human EPOR and human CD131; purchased Sino Biological CT010-H02H
T1 sequence (P19235 25-250 limits assumed): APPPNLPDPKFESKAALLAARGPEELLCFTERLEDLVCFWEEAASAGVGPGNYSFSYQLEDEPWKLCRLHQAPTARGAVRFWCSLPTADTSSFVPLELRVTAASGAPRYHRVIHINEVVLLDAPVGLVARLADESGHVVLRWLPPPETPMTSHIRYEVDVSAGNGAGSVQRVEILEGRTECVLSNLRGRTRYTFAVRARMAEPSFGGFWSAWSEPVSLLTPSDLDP
T1 sequence (P32927 17-443 limits assumed): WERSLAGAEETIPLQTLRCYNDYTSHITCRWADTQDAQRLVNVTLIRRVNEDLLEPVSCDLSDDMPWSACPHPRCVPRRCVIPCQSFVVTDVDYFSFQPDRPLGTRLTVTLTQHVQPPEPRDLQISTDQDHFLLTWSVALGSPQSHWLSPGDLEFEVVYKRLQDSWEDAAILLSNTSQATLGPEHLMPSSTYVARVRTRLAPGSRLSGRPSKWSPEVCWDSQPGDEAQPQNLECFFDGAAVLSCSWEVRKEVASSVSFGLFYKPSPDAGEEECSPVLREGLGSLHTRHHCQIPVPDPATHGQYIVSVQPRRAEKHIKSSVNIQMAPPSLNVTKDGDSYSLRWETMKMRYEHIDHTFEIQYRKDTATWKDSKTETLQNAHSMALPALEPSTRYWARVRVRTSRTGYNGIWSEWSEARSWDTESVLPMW

[2] = target: T2, soluble hetero-EPOR (EPOR-CD131-Fc) (Homo sapiens, UniProt P19235+P32927); assay: Bio-layer interferometry (Octet) binding of hybridoma antibodies to EPOR-CD131-Fc; details: hybridoma supernatants; 30 nM soluble receptor
T2 construct: Chimeric Fc fusion proteins of the extracellular domains of human EPOR and human CD131; purchased Sino Biological CT010-H02H
T2 sequence (P19235 25-250 limits assumed): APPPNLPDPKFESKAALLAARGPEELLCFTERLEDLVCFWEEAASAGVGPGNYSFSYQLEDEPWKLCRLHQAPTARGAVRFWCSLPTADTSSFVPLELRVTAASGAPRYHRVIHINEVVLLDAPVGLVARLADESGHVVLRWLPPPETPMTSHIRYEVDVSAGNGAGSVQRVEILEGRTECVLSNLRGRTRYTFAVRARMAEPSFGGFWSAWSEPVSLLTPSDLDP
T2 sequence (P32927 17-443 limits assumed): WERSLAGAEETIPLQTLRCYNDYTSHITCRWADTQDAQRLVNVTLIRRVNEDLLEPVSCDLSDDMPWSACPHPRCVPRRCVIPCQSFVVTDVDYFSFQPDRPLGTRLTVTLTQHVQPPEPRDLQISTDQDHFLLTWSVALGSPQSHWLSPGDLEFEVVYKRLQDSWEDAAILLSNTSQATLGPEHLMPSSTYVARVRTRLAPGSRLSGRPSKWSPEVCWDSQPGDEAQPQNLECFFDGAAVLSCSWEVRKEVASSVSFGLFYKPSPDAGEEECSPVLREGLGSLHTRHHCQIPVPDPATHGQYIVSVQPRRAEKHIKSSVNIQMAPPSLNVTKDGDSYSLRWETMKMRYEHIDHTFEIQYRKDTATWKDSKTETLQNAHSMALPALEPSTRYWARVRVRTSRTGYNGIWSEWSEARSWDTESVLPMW
From the text: (§1) The B cells from ATX-GK mice were fused with mouse myeloma cells to generate hybridoma. The hybridoma cells were screened twice. In the first screening, 293 cells expressing human EPOR, human CD131, or both were used as the primary screen. 87 hybridoma antibodies have been isolated by positive staining on 293T cells expressing human EPOR (hEPOR), human CD131 (hCD131), or both, with the hybridoma supernatants (Table 11 and FIG. 17). Expression of EPOR and CD131 was confirmed by flow cytometry with Phycoerythrin (PE)-labeled anti-EPOR (R&D Systems, Cat #FAB307P) and Alexa Fluor® 647 (AF647)-labeled anti-CD131 (BD Biosciences, Cat #564191), respectively (FIG. 28B). All hybridoma clones were purified and sequenced. Binding kinetics with soluble hetero-EPOR (EPOR-CD131-Fc), soluble EPO receptor subunit of hetero-EPOR (EPOR-Fc), and soluble CD131 subunit of hetero-EPOR (CD131-Fc) were measured using bio-layer interferometry (Octet®) by capturing the hybridoma antibodies in the supernatants on biosensors coated with anti-mouse Fc first and dipping the biosensors into the solutions containing 30 nM of the soluble receptor Fc fusion proteins. The supernatants were also used to block the interaction between EPO and EPOR. The soluble EPOR-CD131-Fc was first captured on biosensors coated with anti-human Fc and then dipped into 10 nM of EPO with or without the hybridoma supernatants. […]

EPOR-Fc = target: T3, EPOR-Fc (Homo sapiens, UniProt P19235); assay: Bio-layer interferometry (Octet) binding of hybridoma antibodies to EPOR-Fc; details: hybridoma supernatants; 30 nM soluble receptor
T3 construct: The extracellular domains of EPOR or CD131 are produced as soluble Fc fusion proteins; purchased Sino Biological 10707-H02H
T3 sequence (P19235 25-250 limits assumed): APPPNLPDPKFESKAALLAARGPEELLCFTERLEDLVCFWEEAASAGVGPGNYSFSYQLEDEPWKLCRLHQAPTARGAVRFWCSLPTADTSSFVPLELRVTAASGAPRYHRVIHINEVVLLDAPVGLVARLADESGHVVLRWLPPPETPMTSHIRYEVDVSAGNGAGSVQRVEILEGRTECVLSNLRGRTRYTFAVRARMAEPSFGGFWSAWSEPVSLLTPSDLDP
From the text: as §1

HIF-2a, sequence (Q99814 whole entry): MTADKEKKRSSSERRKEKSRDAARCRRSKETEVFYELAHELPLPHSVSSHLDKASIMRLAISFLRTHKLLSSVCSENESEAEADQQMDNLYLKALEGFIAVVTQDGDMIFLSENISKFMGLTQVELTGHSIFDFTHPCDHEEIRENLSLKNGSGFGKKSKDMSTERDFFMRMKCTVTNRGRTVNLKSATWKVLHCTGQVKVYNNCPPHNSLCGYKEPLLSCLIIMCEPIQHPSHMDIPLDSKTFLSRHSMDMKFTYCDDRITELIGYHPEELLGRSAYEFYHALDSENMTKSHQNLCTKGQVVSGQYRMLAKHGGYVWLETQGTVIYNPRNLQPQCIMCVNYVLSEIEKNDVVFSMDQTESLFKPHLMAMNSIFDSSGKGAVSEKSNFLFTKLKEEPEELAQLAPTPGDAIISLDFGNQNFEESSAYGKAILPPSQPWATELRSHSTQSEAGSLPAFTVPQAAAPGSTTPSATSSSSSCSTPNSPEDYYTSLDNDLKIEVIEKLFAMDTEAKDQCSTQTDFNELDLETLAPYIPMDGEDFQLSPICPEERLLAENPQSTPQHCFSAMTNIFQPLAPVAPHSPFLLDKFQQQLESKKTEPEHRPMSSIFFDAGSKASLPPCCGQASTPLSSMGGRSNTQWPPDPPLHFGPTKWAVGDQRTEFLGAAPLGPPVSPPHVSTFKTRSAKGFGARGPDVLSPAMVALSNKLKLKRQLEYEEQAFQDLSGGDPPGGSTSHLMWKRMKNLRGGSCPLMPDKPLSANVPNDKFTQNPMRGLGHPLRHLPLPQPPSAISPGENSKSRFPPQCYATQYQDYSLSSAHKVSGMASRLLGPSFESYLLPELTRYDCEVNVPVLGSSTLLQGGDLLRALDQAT
HIF-1a, sequence (Q16665 whole entry): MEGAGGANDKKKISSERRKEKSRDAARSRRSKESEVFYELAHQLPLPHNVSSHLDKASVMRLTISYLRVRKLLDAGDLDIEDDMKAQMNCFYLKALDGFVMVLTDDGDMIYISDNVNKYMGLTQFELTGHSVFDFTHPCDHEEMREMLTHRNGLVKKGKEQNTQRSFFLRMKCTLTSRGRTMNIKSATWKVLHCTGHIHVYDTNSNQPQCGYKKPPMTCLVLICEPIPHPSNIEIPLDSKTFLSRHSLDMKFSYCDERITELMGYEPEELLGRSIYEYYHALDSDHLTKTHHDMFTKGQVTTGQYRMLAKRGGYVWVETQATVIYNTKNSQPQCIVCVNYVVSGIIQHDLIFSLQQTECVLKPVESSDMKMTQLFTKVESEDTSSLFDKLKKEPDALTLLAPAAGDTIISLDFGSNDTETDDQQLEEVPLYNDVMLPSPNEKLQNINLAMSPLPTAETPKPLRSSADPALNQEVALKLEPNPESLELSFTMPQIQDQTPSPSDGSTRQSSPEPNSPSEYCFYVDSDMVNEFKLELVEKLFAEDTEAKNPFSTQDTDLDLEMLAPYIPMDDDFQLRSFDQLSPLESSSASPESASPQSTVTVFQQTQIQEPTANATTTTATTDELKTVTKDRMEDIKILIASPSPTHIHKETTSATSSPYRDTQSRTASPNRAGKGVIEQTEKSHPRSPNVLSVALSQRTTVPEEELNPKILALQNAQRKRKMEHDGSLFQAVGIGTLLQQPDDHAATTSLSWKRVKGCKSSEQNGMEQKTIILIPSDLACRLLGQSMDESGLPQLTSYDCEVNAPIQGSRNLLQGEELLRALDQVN

In the case of O=[N+]([O-])c1c(Nc2cc(F)cc(Cl)c2)ccc2nonc12 [TC-S 700], the IC50 (HIF-2a) is given as 81 nM.

For COC(=O)c1sccc1N/N=C(\C#N)S(C)(=O)=O [HIF-2α-IN-4], the IC50 (HIF-2a) is listed as 5000 nM.

For O=[N+]([O-])c1cc(Nc2ccc3nonc3c2[N+](=O)[O-])ccc1Cl [HIF-2α-IN-3], the IC50 (HIF-2a) is given as 400 nM.

In the case of O=c1c(-n2ccnn2)c[nH]n1-c1cc(N2CCOCC2)ncn1 [Molidustat], the IC50 (PHD; target PHD) is given as 450 nM.

For Cc1ccc(C(=O)COC(=O)c2cccc(NC(=O)c3ccc([N+](=O)[O-])cc3[N+](=O)[O-])c2)cc1 [FM19G11], the IC50 (HIF-1a; target HIF-1a) is listed as 80 nM.

For O=S(=O)(NCCSSCCNS(=O)(=O)c1cc(Cl)ccc1Cl)c1cc(Cl)ccc1Cl [KC7F2], the IC50 (HIF-1a; target HIF-1a, read-out: IC50) is listed as 20000 nM.

In the case of CC[C@@H](C)C[C@H](C)C[C@H](C)/C=C(\C)[C@H]1OC(O)([C@](C)(O)C(=O)N[C@@H]2C(=O)N3NCCC[C@@H]3C(=O)N(O)CC(=O)N(C)CC(=O)NCC(=O)N(C)CC(=O)O[C@H]2C(C)C)CC[C@@H]1OC (stereo partly shown) [Verucopeptin], the IC50 (HIF-1a; target HIF-1a, read-out: IC50) is listed as 220 nM.

For COC(=O)c1ccc(O)c(NC(=O)COc2ccc(C34CC5CC(CC(C5)C3)C4)cc2)c1 [CAY10585 (LW6)], the IC50 (HIF-1a; read-out: IC50) is listed as 700 to 2600 nM.

For CN1C(=O)[C@]2(Cc3cn([C@]45C[C@@]67SS[C@@](CO)(C(=O)N6[C@H]4Nc4ccccc45)N(C)C7=O)c4ccccc34)SS[C@@]1(CO)C(=O)N2C [Chetomin], the IC50 (HIF-1a; target HIF-1a, read-out: IC50) is listed as 10 nM.

In the case of O=C(O)CNC(=O)c1ncc(-c2cn(CCCc3ccc(Cl)cc3)nn2)cc1O [Prolyl Hydroxylase inhibitor 1], the IC50 (PHD; target PHD) is listed as 62.2 nM.

For c1ccc(-c2ccc(CNc3nc(-c4ccccn4)nnc3-c3ccccc3)cc2)cc1 [ML228], the IC50 (PHD; target cell empty) is listed as 1000 nM.

In the case of CS[C@H]1SC[C@H]2C(=O)N(C)[C@@H](C(C)C)C(=O)OC[C@@H](NC(=O)c3cnc4ccccc4n3)C(=O)N[C@@H](C)C(=O)N(C)[C@@H]1C(=O)N(C)[C@@H](C(C)C)C(=O)OC[C@@H](NC(=O)c1cnc3ccccc3n1)C(=O)N[C@@H](C)C(=O)N2C [Echinomycin], the IC50 (HIF-1a; target HIF-1a, read-out: IC50) is listed as 1.2 nM.

B1: EPORab - M52: hybridoma antibody clone, VH/VK in Table 10 (antibody, V domains shown)
VH: QLQLQESGPGLAKPSETLSLTCTVSGVSISSNSYYWGWIRQPPGKGLEWIGNIYHSGRTYYNPSLRSRVTISVDTSKNQFSLKLNSVTAADTAVYYCARGYSYGAFDYWGQGTLVTVSS
VL: DIQMTQSPSSLSASVGDRVTITCRASQGIRNDLGWYQQKPGKAPKRLIYAASSLQSGIPSRFSGSGSGTEFTLTISSLQPEDFATYYCLQHNNYPWTFGQGTKVEIK
In the case of B1, the “blocking of the EPO/EPOR interaction” value [1] is reported as “partial blocking”.

B2: EPORab - M1: hybridoma antibody clone, VH/VK in Table 10 (antibody, V domains shown)
VH: QVQLQESGPGLVKPSQTLSLTCTVSGGSISSGGYYWSWIRQHPGKGLEWIGNIYYSGNPYYNPSLKSRLIISVDTSKNQFSLRLNSVTAADTAVYYCATFYYGSGSYYNEDYWGQGTLVTVSS
VL: DIQMTQSPSSLSASVGDRVTITCRASQGIRIDLGWYQQKPGKAPKRLIYAASSLKSGVPSRFSGSGSGTEFTLTISSLQPEDFTTYFCLQHNSYPYTFGQGTKLEIK
For B2, the “binding to EPOR-CD131-Fc” value [2] was “potent binding”, the “binding to EPOR-Fc” value (EPOR-Fc) was “potent binding” and the “blocking of the EPO/EPOR interaction” value [1] was “partial blocking”.

B3: EPORab - M19: hybridoma antibody clone, VH/VK in Table 10 (antibody, V domains shown)
VH: QLQLQESGPGLVKPSETLSLTCTVSGGSISSSNHYWGWIRQPPGKGLEWIGTLYYSGSTYYEPSLKSRVTISVDTSMNQFSLNLSSVTATDTAVYNCARGDRYGPFDYWGQGTLVTVSS
VL: DIVMTQSPSSLSASVGDRVTITCRASQGIRDDLGWYQQKPEKAPKRLICAASSLQSGVPSRFSGSGSGTEFTLTISSLQPEDFATYYCLQYNRYPWTFGQGTKVEIK
For B3, the “blocking of the EPO/EPOR interaction” value [1] was “partial blocking”.

B4: EPORab - M54: hybridoma antibody clone, VH/VK in Table 10 (antibody, V domains shown)
VH: QLQLQESGPGLVKPSETLSLTCSVSGGSISSSGYYWGWIRQPPGKGLDWIGTIYYSGNTNYNPSLNSRVTISVDTSRNQFSLKLRSVTAADTAVYYCARGYSYGPFDYWGQGTLVTVSS
VL: EIVMTQSPATLSVSPGERATLSCRASQSVSSNLAWYQLKPGQAPRLLIYGASTRATGIPARFSGSGSGTEFTLTISSLQSEDFAVYYCHPYNNWPLTFGGGTKVEIK
With B4 the “blocking of the EPO/EPOR interaction” value [1] was “partial blocking”.

B5: EPORab - M71: hybridoma antibody clone, VH/VK in Table 10 (antibody, V domains shown)
VH: QVQLVESGAEVKKPRASVKVSCKTSGYTFTRHYMHWVRQAPGQGLEWMGIINPNNNSTSYAQKFQGRITMTRDTSTSTVYMELSSLRSEDTAVYYCARFRIVGTTLYFDYWGQGTLVTVSS
VL: EIVMTQSPATLSVSPGERATLSCRASQSVSSNLAWYQLKPGQAPRLLIYGASTRATGIPARFSGSGSGTEFTLTISSLQSEDFAVYYCHPYNNWPLTFGGGTKVEIK
In the case of B5, the “blocking of the EPO/EPOR interaction” value [1] is reported as “did not block”.

B6: EPORab - M24: hybridoma antibody clone, VH/VK in Table 10 (antibody, V domains shown)
VH: EVQLVESGGGLVKPGGSLRLSCAASGFTFTNAWMNWVRQAPGKGLEWIGRIKSKTAGETTDYAAPVKGRFTISRDDSKNTLYLQMNSLKTEDTAVYYCTTDPDYGDPYYYYYFMDVWGKGTTVTVSS
VL: DIQMTQSPSSLSASIGDRVTISCRASQSISSYLNWYQQKPGKAPKLLIYGASSLQSGVPSRFSGSGSGTDFTLTISSLQPEDFATYYCQQSYSLPLTFGGGTKVEIK
For B6, the “blocking of the EPO/EPOR interaction” value [1] was “partial blocking”.

B7: EPORab - M37: hybridoma antibody clone, VH/VK in Table 10 (antibody, V domains shown)
VH: QVQLQESGPGLVKPSGTLSLTCAVSGGSITTNNWWSWVRQSPGKGLEWIGEIYHSGNTNYNPSLKSRVTMSVDKSKNQFSLNLNSVIVADTAVYYCASALGTYYGAFDTWGQGTMVTVSA
VL: DIQMTQSPSSLSASVGDRVTITCRASQSISNYLNWYQQKPGKAPKLLIYAASSLQSGVPSRFSGSGSGTDFTLTISSLQPEDFTTYYCQQSYGTPYTFGQGAKLQIK
In the case of B7, the “blocking of the EPO/EPOR interaction” value [1] is reported as “did not block”.

B8: EPORab - M43: hybridoma antibody clone, VH/VK in Table 10 (antibody, V domains shown)
VH: QVQLQESGPGLVKPSGTLSLTCAVSGGSISSSNWWSWVRQPPGKGLEWIGEIYHSGSINYNPSLKSRVTISVDKSKNQFSLKLTSVTAADTAVYYCASALGNYYGAFDLWGQGTMVTVSS
VL: DIVMTQSPSSLSASVGDRVTITCRASQTISSYLNWYQQKPGKAPKLLICAASSLQGGVPSRFSGSGSGTDFTLTISSLQPEDFAPYYCQQSYSTPYTFGQGTKLEIK
With B8 the “blocking of the EPO/EPOR interaction” value [1] was “did not block”.

Source: US12637513B2, “Method of treating cancer by administering an inhibitor of erythropoietin receptor activity comprising either erythropoietin receptor or erythropoietin protein” (ImmunEdge, Inc., priority 2022, dated 2026)
